# According to ChEMBL document CHEMBL4325829, “Design and Synthesis of Tubulin and Histone Deacetylase Inhibitor Based on iso-Combretastatin A-4” (J Med Chem, 2018):
# Active and inactive are the calls of the source. The calls are words filed in the database; no cut-off is given here.
# Key:
# [1] = target: T1, Protein deacetylase HDAC6 (Homo sapiens, UniProt Q9UBN7)
# T1 sequence (Q9UBN7 whole entry): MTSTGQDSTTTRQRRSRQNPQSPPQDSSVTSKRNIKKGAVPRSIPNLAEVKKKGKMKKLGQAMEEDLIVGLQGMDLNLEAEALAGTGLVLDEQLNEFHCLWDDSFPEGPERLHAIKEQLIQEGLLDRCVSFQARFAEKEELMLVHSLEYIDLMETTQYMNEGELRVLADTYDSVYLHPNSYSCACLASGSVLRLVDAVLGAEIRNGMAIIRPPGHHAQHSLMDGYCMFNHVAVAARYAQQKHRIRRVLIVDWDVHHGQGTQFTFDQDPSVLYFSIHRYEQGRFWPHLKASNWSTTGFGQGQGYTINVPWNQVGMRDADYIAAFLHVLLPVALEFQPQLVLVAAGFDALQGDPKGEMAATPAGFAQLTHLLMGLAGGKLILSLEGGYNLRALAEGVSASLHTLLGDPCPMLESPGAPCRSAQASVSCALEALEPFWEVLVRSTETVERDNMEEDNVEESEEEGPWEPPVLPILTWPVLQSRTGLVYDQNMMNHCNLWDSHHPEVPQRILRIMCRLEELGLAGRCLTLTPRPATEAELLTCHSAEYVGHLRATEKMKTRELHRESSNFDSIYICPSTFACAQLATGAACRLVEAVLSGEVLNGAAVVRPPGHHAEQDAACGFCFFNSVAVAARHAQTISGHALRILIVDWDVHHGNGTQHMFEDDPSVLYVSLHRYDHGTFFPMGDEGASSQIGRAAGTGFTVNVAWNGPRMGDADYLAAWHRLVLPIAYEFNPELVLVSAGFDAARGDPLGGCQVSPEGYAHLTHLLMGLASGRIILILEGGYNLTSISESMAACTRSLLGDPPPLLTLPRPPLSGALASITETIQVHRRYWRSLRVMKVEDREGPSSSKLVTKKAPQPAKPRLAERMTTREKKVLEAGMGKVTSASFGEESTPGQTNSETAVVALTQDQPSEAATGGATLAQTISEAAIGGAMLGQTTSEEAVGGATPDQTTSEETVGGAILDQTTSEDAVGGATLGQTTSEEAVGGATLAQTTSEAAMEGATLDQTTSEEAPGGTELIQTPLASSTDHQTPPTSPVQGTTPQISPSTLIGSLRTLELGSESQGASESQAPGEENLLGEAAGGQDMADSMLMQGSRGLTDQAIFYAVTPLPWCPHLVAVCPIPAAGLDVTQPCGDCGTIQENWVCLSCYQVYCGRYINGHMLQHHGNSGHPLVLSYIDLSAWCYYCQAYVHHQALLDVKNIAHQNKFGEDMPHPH
# Description: Inhibition of human recombinant HDAC6 after 30 mins using fluorogenic substrate by fluorimetric assay
# [2] = tested on: HCT-116; assay: Antiproliferative activity against human HCT116 cells after 72 hrs by MTS assay; format: functional; settings: Homo sapiens, HCT-116, 72 h
# [3] = Inhibition of sheep brain tubulin polymerization assessed as reduction in rate of microtubule assembly by DAPI-fluorescence based assay; design: species or system Ovis aries
# [4] = target: T2, Histone deacetylase 8 (Homo sapiens, UniProt Q9BY41); assay: Inhibition of human recombinant HDAC8 after 30 mins using fluorogenic substrate by fluorimetric assay; settings: read-out: IC50
# T2 sequence (Q9BY41 whole entry): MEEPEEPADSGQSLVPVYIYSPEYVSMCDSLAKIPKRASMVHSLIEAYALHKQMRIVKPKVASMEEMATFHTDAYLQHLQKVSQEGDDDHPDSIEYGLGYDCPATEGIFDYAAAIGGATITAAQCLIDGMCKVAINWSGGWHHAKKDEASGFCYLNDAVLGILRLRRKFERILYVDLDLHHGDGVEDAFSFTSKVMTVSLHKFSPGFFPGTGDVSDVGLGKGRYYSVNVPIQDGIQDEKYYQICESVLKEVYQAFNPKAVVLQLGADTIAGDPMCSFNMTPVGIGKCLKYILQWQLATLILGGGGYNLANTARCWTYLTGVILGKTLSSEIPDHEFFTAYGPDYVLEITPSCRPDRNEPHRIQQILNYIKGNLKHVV
# [5] = species on record: Ovis aries; assay: Inhibition of sheep brain tubulin polymerization assessed as reduction in rate of microtubule assembly at 200 uM by DAPI-fluorescence based assay
# [6] = tested on: BXPC-3; assay: Antiproliferative activity against human BxPC3 cells after 72 hrs by MTS assay; format: functional; settings: Homo sapiens, BXPC-3, 72 h
# [7] = tested on: MIA PaCa-2; assay: Antiproliferative activity against human MIAPaCa2 cells after 72 hrs by MTS assay; format: functional; settings: Homo sapiens, MIA PaCa-2, 72 h
# [8] = tested on: A549; assay: Antiproliferative activity against human A549 cells after 72 hrs by MTS assay; format: functional; settings: Homo sapiens, A549, 72 h
# [9] = tested on: K-562R; assay: Antiproliferative activity against human K562R cells after 72 hrs by MTS assay; format: functional; settings: Homo sapiens, K-562R, 72 h
# [10] = tested on: K562; assay: Antiproliferative activity against human K562 cells after 72 hrs by MTS assay; format: functional; settings: Homo sapiens, K562, 72 h
# [11] = tested on: U-87 MG; assay: Antiproliferative activity against human U87 cells after 72 hrs by MTS assay; format: functional, U-87MG ATCC; settings: Homo sapiens, U-87 MG, 72 h
# [12] = target: T3, Protein deacetylase HDAC6 (Homo sapiens) (UniProt Q9UBN7); assay: Inhibition of HDAC6 in human HT-29 cells assessed as acetylated alpha-tubulin levels at 25 uM after 24 hrs by Western blot analysis relative to control; format: cell-based
# T3 sequence (whole entry): T1 sequence (Q9UBN7 whole entry)
# [13] = tested on: HT-29; assay: Antiproliferative activity against human HT-29 cells after 72 hrs by MTS assay; format: functional; settings: Homo sapiens, HT-29, 72 h
# [14] = target: T3, Protein deacetylase HDAC6 (Homo sapiens); assay: Inhibition of HDAC6 in human HT-29 cells assessed as acetylated alpha-tubulin levels at 25 uM after 6 hrs by Western blot analysis relative to control; format: cell-based
# [15] = target: T4, Histone deacetylase 8 (Homo sapiens) (UniProt Q9BY41); assay: Inhibition of HDAC8 in human HT-29 cells assessed as acetylated SMC3 levels at 25 uM after 6 hrs by Western blot analysis relative to control; format: cell-based
# T4 sequence (whole entry): T2 sequence (Q9BY41 whole entry)
# [16] = tested on: MCF7; assay: Antiproliferative activity against human MCF7 cells after 72 hrs by MTS assay; format: functional; settings: Homo sapiens, MCF7, 72 h
# [17] = target: T4, Histone deacetylase 8 (Homo sapiens); assay: Inhibition of HDAC8 in human HT-29 cells assessed as acetylated SMC3 levels at 25 uM after 24 hrs by Western blot analysis relative to control; format: cell-based
# [18] = tested on: PC-3; assay: Antiproliferative activity against human PC3 cells after 72 hrs by MTS assay; format: functional; settings: Homo sapiens, PC-3, 72 h
# [19] = target: T5, Histone deacetylase (Homo sapiens) (UniProt Q13547+O15379+Q9UBN7+Q92769+Q9UQL6+Q8WUI4+Q9BY41+Q96DB2+P56524+Q9UKV0+Q969S8); assay: Inhibition of HDAC in human HT-29 cells assessed as phosphorylated gamma-H2AX levels at 605 nM after 3 days by Western blot analysis relative to control; format: cell-based
# [20] = Lipophilicity, log P of the compound; format: physicochemical; settings: octanol/water; read-out: logP
# [21] = Aqueous solubility of the compound; format: physicochemical; settings: water
# [22] = target: T6, Histone deacetylase 11 (Homo sapiens, UniProt Q96DB2); assay: Inhibition of human recombinant HDAC11 after 30 mins using fluorogenic substrate by fluorimetric assay; settings: read-out: IC50
# T6 sequence (Q96DB2 whole entry): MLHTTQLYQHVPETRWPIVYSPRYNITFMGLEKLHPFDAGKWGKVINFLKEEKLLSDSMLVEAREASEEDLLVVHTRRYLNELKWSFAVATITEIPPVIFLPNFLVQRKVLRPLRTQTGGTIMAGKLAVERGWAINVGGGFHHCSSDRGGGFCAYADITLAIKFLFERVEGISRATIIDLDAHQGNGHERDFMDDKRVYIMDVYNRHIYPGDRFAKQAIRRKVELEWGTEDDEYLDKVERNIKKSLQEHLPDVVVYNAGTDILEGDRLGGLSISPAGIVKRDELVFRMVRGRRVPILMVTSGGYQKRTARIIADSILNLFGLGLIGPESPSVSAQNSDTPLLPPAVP
# [23] = target: T5, Histone deacetylase (Homo sapiens); assay: Inhibition of HDAC in human HT-29 cells assessed as gamma-H2AX phosphorylation after 3 days by Western blot analysis; format: cell-based
# [24] = target: T5, Histone deacetylase (Homo sapiens); assay: Inhibition of HDAC in human HT-29 cells assessed as phosphorylated gamma-H2AX levels at 302 nM after 3 days by Western blot analysis relative to control; format: cell-based
# [25] = Induction of apoptosis in human BL2 cells assessed as early apoptotic cells at 10 nM after 48 hrs by annexin V-FITC/propidium iodide double staining-based flow cytometry (reference value: 8.2%); format: functional
# [26] = Induction of apoptosis in human BL2 cells assessed as late apoptotic cells at 10 nM after 48 hrs by annexin V-FITC/propidium iodide double staining-based flow cytometry (reference value: 2.1%); format: functional
compound,measurement,setting,value
C=C(c1cc(OC)c(OC)c(OC)c1)c1ccc2c(c1)cc(/C=C/C(=O)NO)n2C,IC50,[1],3.8 µM
same,GI50,[2],0.02 µM
same,IC50,[3],5.4 µM
same,IC50,[4],6.2 µM
C=C(c1ccc(OC)c(OCCCCCCC(=O)NO)c1)c1cc(OC)c(OC)c(OC)c1,inhibition,[5],inactive
same,GI50,[2],2.5 µM
C=C(c1ccc(OC)c(OCCCC(=O)OCC)c1)c1cc(OC)c(OC)c(OC)c1,inhibition,[5],inactive
same,GI50,[2],1 µM
C=C(c1cc(OC)c(OC)c(OC)c1)c1ccc2c(c1)cc(C(=O)NO)n2C,GI50,[2],0.036 µM
same,IC50,[3],81 µM
C=C(c1ccc(OC)c(C#CCCCC(=O)NO)c1)c1cc(OC)c(OC)c(OC)c1,GI50,[2],0.372 µM
same,IC50,[3],18 µM
C=C(c1ccc(OC)c(C#CCCCC(=O)OCC)c1)c1cc(OC)c(OC)c(OC)c1,inhibition,[5],inactive
same,GI50,[2],3 µM
COc1ccc(Cn2ccc3ccc(C(=O)NO)cc32)cc1,GI50,[6],> 20 µM
same,GI50,[7],> 20 µM
same,GI50,[8],> 20 µM
same,GI50,[9],2.2 µM
same,GI50,[10],2.01 µM
same,GI50,[11],> 15 µM
same,GI50,[2],2.64 µM
same,fold change (FC),[12],1.7
same,GI50,[13],> 10 µM
same,fold change (FC),[14],0.5
same,fold change (FC),[15],3.1
same,GI50,[16],2.97 µM
same,fold change (FC),[17],4.8
same,GI50,[18],2.66 µM
C=C(c1cc(OC)c(OC)c(OC)c1)c1ccc2c(c1)c(C(=O)NO)cn2C,GI50,[2],0.03 µM
same,IC50,[3],7.3 µM
C=C(c1ccc(OC)c(OCCCC(=O)NO)c1)c1cc(OC)c(OC)c(OC)c1,inhibition,[5],inactive
same,GI50,[2],0.5 µM
C=C(c1ccc(OC)c(OCCCCCCC(=O)OCC)c1)c1cc(OC)c(OC)c(OC)c1,inhibition,[5],inactive
same,GI50,[2],3 µM
C=C(c1ccc(OC)c(OCC(=O)OCC)c1)c1cc(OC)c(OC)c(OC)c1,GI50,[2],0.15 µM
same,IC50,[3],5 µM
C=C(c1cc(OC)c(OC)c(OC)c1)c1ccc(OC)c(C(=O)Nc2ccccc2N)c1,inhibition,[5],inactive
same,GI50,[2],0.34 µM
C=C(c1ccc(OC)c(C#CCCC(=O)NO)c1)c1cc(OC)c(OC)c(OC)c1,GI50,[2],0.008 µM
same,IC50,[3],1.7 µM
C=C(c1cc(OC)c(OC)c(OC)c1)c1ccc(OC)c(/C=C/C(=O)NO)n1,GI50,[2],0.0372 µM
same,IC50,[3],7.5 µM
C=C(c1ccc(OC)c(C#CCCC(=O)OCC)c1)c1cc(OC)c(OC)c(OC)c1,inhibition,[5],inactive
same,GI50,[2],1 µM
C=C(c1cc(OC)c(OC)c(OC)c1)c1ccc(OC)cc1/C=C/C(=O)NO,fold change (FC),[19],2.9
same,GI50,[6],0.025 µM
same,GI50,[7],0.018 µM
same,GI50,[8],0.022 µM
same,GI50,[9],0.08 µM
same,GI50,[10],0.02 µM
same,logP,[20],2.13
same,GI50,[11],0.011 µM
same,IC50,[1],5 µM
same,GI50,[2],0.008 µM
same,IC50,[3],2.1 µM
same,fold change (FC),[12],0.9
same,solubility,[21],88.3 µg/mL
same,GI50,[13],0.0636 µM
same,fold change (FC),[14],0.3
same,fold change (FC),[15],1.6
same,GI50,[16],0.017 µM
same,IC50,[22],8 µM
same,inhibition,[23],Dose-dependent effect
same,fold change (FC),[17],2.7
same,fold change (FC),[24],1.3
same,IC50,[4],0.06 µM
same,GI50,[18],0.028 µM
C=C(c1cc(OC)c(OC)c(OC)c1)c1ccc2c(ccn2CCC(=O)NO)c1,GI50,[2],0.393 µM
same,IC50,[3],22 µM
C=C(c1ccc(OC)c(OCC(=O)NO)c1)c1cc(OC)c(OC)c(OC)c1,GI50,[2],0.022 µM
same,IC50,[3],2.4 µM
O=C(CCCCCCC(=O)Nc1ccccc1)NO [VORINOSTAT],Activity,[25],6.7%
same,Activity,[26],1.8%
C=C(c1cc(OC)c(OC)c(OC)c1)c1ccc2c(c1)c(/C=C/C(=O)NO)cn2C,IC50,[1],6.9 µM
same,GI50,[2],0.014 µM
same,IC50,[3],3.7 µM
same,IC50,[22],5 µM
same,IC50,[4],0.24 µM
C=C(c1ccc(OC)c(/C=C/C(=O)OC)c1)c1cc(OC)c(OC)c(OC)c1,GI50,[2],0.085 µM
same,IC50,[3],4 µM
C=C(c1cc(OC)c(OC)c(OC)c1)c1ccc(OC)c(C(=O)NO)c1,GI50,[2],0.233 µM
same,IC50,[3],20 µM
